Test results: patent US7488832B2, “Azolylacylguanidines as β-secretase inhibitors” (Wyeth, priority 2005, dated 2009)

Target: human BACE1 (Homo sapiens, UniProt P56817)
Experiment: Fluorescent kinetic assay, human BACE1 (FRET peptide substrate WABC-6);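 also: fluorescence monitored at excitation 320 nm and emission 420 nm over 30 min, with the substrate cleavage rate taken as the linear slope of the signal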
Format: biochemical
Details: fluorescent kinetic assay, 25 μM substrate WABC-6, pH 4.5, room temperature; read-out: IC50 (μM) BACE 1

Sequence of human BACE1 (P56817 46-501): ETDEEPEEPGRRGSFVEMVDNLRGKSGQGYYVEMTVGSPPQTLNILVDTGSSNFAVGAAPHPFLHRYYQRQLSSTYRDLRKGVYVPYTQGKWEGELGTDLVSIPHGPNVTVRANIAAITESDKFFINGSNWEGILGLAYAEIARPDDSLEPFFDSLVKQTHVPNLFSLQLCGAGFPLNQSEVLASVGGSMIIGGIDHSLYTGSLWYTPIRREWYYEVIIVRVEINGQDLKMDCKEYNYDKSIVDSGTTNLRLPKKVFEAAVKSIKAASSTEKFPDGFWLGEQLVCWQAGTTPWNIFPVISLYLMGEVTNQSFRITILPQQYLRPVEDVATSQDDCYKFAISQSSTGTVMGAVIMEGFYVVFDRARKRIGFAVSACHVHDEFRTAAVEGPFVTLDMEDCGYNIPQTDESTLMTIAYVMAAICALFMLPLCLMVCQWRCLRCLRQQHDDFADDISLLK

Structure (SMILES)	IC50
NC(=NC(=O)Cn1c(-c2ccccc2)ccc1-c1ccc(C(=O)NC2CC2)cc1)NCCCO [Example 462]	0.11 to 1 µM
C=CCNC(=O)c1ccc(-c2ccc(-c3ccccc3)n2CC(=O)N=C(N)NCCCO)cc1 [Example 463]	0.11 to 1 µM
NC(=NC(=O)Cn1c(-c2ccccc2)ccc1-c1ccc(C(=O)NCCO)cc1)NCCCO [Example 464]	0.11 to 1 µM
N#CCCNC(=O)c1ccc(-c2ccc(-c3ccccc3)n2CC(=O)N=C(N)NCCCO)cc1 [Example 465]	0.11 to 1 µM
CCCNC(=O)c1ccc(-c2ccc(-c3ccccc3)n2CC(=O)N=C(N)NCCCO)cc1 [Example 467]	0.11 to 1 µM
COCCNC(=O)c1ccc(-c2ccc(-c3ccccc3)n2CC(=O)N=C(N)NCCCO)cc1 [Example 468]	0.11 to 1 µM
CCC(C)NC(=O)c1ccc(-c2ccc(-c3ccccc3)n2CC(=O)N=C(N)NCCCO)cc1 (stereo not shown) [Example 469]	0.11 to 1 µM
C=CCN(C)C(=O)c1ccc(-c2ccc(-c3ccccc3)n2CC(=O)N=C(N)NCCCO)cc1 [Example 470]	0.11 to 1 µM
NC(=NC(=O)Cn1c(-c2ccccc2)ccc1-c1ccc(C(=O)NCC(F)(F)C(F)(F)F)cc1)NCCCO [Example 472]	1.1 to 5 µM
CCC[C@H]1CC[C@H](c2ccc(-c3ccccc3)n2CC(=O)/N=C(\N)NCCCC#N)CC1 [Example 473, N-{(1E)-amino[(3-cyanopropyl)amino]methylene}-2-[2-phenyl-5-(trans-4-propylcyclohexyl)-1H-pyrrol-1-yl]acetamide]	1.1 to 5 µM
N#CCCCNC(=N)NC(=O)Cn1c(-c2ccccc2)ccc1C1CCCCC1 [Example 474, N-(3-Cyano-propyl)-N′-[2-(2-cyclohexyl-5-phenyl-pyrrol-1-yl)-acetyl]-guanidine]	1.1 to 5 µM

Tested on: not given
Experiment: not given
Details: not given

Structure (SMILES)	melting point
NC(N)=NC(=O)Cn1c(C(=O)c2ccccc2)ccc1-c1ccccc1 [Example 455, N″-[(2-benzoyl-5-phenyl-1H-pyrrol-1-yl)acetyl]guanidine]	201 to 203 °C
N=C(N)NC(=O)Cn1c(C(=O)c2ccco2)ccc1-c1ccccc1 [Example 456]	175 to 177 °C
N=C(N)NC(=O)Cn1c(Cc2ccccc2)ccc1-c1ccccc1 [Example 458, N-[(2-benzyl-5-phenyl-1H-pyrrol-1-yl)acetyl]guanidine]	155 to 158 °C
N=C(N)NC(=O)Cn1c(Cc2ccco2)ccc1-c1ccccc1 [Example 459, N-[amino(imino)methyl]-2-[2-(2-furylmethyl)-5-phenyl-1H-pyrrol-1-yl]acetamide]	80 to 82 °C
N=C(N)NC(=O)Cn1c(Cc2cccs2)ccc1-c1ccccc1 [Example 460, N-[amino(imino)methyl]-2-[2-phenyl-5-(thien-2-ylmethyl)-1H-pyrrol-1-yl]acetamide]	99 to 120 °C
